Test results: patent publication US20110319411A1, “ISOINDOLINONE AND RELATED ANALOGS AS SIRTUIN MODULATORS” (Sirtis Pharmaceuticals, Inc., priority 2008, published 2011)

Biological target: T1, SIRT1 (Homo sapiens, UniProt Q96EB6)
T1 construct: made in house; host or cells: E. coli BL21(DE3)
T1 sequence (Q96EB6 1-747): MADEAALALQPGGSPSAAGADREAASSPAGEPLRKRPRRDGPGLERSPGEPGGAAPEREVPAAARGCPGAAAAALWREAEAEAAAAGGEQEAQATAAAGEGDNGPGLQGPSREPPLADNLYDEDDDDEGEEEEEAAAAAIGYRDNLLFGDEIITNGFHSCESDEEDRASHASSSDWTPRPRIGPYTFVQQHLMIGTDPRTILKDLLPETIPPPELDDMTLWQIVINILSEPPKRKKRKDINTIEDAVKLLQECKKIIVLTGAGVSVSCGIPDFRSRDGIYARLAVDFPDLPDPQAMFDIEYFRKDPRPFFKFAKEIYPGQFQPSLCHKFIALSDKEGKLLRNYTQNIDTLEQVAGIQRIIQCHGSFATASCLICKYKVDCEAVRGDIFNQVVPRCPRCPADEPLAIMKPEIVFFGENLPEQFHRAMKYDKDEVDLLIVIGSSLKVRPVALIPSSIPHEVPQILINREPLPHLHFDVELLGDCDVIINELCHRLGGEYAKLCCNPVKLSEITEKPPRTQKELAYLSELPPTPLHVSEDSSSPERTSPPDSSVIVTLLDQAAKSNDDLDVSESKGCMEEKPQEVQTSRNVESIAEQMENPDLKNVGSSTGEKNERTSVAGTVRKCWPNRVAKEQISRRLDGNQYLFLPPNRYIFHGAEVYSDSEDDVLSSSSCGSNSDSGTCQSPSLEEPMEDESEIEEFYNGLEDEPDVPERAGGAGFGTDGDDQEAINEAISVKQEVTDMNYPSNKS
Assay: mass spectrometry based assay to identify modulators of SIRT1 activity
Format: biochemical
Details: 10 nM SIRT1, 0.5 μM peptide substrate, 120 μM βNAD+, 25 minutes at 25° C.; for Emax: 25 min, read-out: % FOLD ACT. (percent maximum fold activation)
Text: A mass spectrometry based assay was used to identify modulators of SIRT1 activity. The mass spectrometry based assay utilizes a peptide having 20 amino acid residues as follows: Ac-EE-K(biotin)-GQSTSSHSK(Ac)NleSTEG-K(5TMR)-EE-NH2 (SEQ ID NO: 1) wherein K(Ac) is an acetylated lysine residue and Nle is a norleucine. The peptide is labeled with the fluorophore 5TMR (excitation 540 nm/emission 580 nm) at the C-terminus. The sequence of the peptide substrate is based on p53 with several modifications. In addition, the methionine residue naturally present in the sequence was replaced with the norleucine because the methionine may be susceptible to oxidation during synthesis and purification.
The mass spectrometry assay is conducted as follows: 0.5 μM peptide substrate and 120 μM βNAD^+ is incubated with 10 nM SIRT1 for 25 minutes at 25° C. in a reaction buffer (50 mM Tris-acetate pH 8, 137 mM NaCl, 2.7 mM KCl, 1 mM MgCl2, 5 mM DTT, 0.05% BSA). Test compounds may be added to the reaction as described above. The SirT1 gene is cloned into a T7-promoter containing vector and transformed into BL21(DE3). After the 25 minute incubation with SIRT1, 10 μL of 10% formic acid is added to stop the reaction. Reactions are sealed and frozen for later mass spec analysis. Determination of the mass of the substrate peptide allows for precise determination of the degree of acetylation (i.e. starting material) as compared to deacetylated peptide (product).
A control for inhibition of sirtuin activity is conducted by adding 1 μL of 500 mM nicotinamide as a negative control at the start of the reaction (e.g., permits determination of maximum sirtuin inhibition). A control for activation of sirtuin activity is conducted using 10 nM of sirtuin protein, with 1 μL of DMSO in place of compound, to determine the amount of deacetylation of the substrate at a given timepoint within the linear range of the assay. This timepoint is the same as that used for test compounds and, within the linear range, the endpoint represents a change in velocity.
For the above assay, SIRT1 protein was expressed and purified as follows. The SirT1 gene was cloned into a T7-promoter containing vector and transformed into BL21(DE3). The protein was expressed by induction with 1 mM IPTG as an N-terminal His-tag fusion protein at 18° C. overnight and harvested at 30,000×g. Cells were lysed with lysozyme in lysis buffer (50 mM Tris-HCl, 2 mM Tris[2-carboxyethyl]phosphine (TCEP), 10 μM ZnCl2, 200 mM NaCl) and further treated with sonication for 10 min for complete lysis. The protein was purified over a Ni-NTA column (Amersham) and fractions containing pure protein were pooled, concentrated and run over a sizing column (Sephadex S200 26/60 global). The peak containing soluble protein was collected and run on an Ion-exchange column (MonoQ). Gradient elution (200 mM-500 mM NaCl) yielded pure protein. This protein was concentrated and dialyzed against dialysis buffer (20 mM Tris-HCl, 2 mM TCEP) overnight. The protein was aliquoted and frozen at −80° C. until further use.
Sirtuin modulating compounds that activated SIRT1 were identified using the assay described above and are shown below in Table 1. The EC1.5 values represent the concentration of test compounds that result in 150% activation of SIRT1. The EC1.5 values for the activating compounds are represented by A (EC1.5<10 μM), B (EC1-5 10-25 μM), C (EC1.5>25 μM). The percent maximum fold activation is represented by A (Fold activation >200%) or B (Fold Activation <200%).

SMILES | EC1.5 (concentration of test compound that results in 150% activation of SIRT1) | Emax [%]
O=C(Nc1cccc2c1C(=O)N(c1cccc(C(F)(F)F)c1)C2)c1cnccn1 [Compound 100, N-(3-oxo-2-(3-(trifluoromethyl)phenyl)isoindolin-4-yl)pyrazine-2-carboxamide] | A (EC1.5<10 μM) | < 200
O=C(Cc1cccnc1)Nc1cccc2c1C(=O)N(c1cccc(C(F)(F)F)c1)C2 [Compound 101] | C (EC1.5>25 μM) | < 200
O=C(Cc1cccnc1)Nc1cccc2c1C(=O)N(c1cccc(OC3CCNCC3)c1)C2 [Compound 102, N-(3-oxo-2-(3-(piperidin-4-yloxy)phenyl)isoindolin-4-yl)-2-(pyridin-3-yl)acetamide] | C (EC1.5>25 μM) | < 200
O=C(Cc1cccnc1)Nc1cccc2c1C(=O)N(c1cccc(O[C@@H]3CCNC3)c1)C2 [Compound 103] | B (EC1-5 10-25 μM) | < 200
O=C(Cc1cccnc1)Nc1cccc2c1C(=O)N(c1cccc(-c3ccncc3)c1)C2 [Compound 104] | C (EC1.5>25 μM) | < 200
CC1(C(=O)Nc2cccc3c2C(=O)N(c2cccc(C(F)(F)F)c2)C3)CCCCC1 [Compound 105] | C (EC1.5>25 μM) | < 200
CC(C)(C(=O)Nc1cccc2c1C(=O)N(c1cccc(C(F)(F)F)c1)C2)c1ccccc1 [Compound 106] | C (EC1.5>25 μM) | < 200
O=C(Cc1cccnc1)Nc1cccc2c1C(=O)N(c1cccc(OC(F)(F)F)c1)C2 [Compound 107] | C (EC1.5>25 μM) | < 200
O=C(Nc1cccc2c1C(=O)N(c1cccc(OC(F)(F)F)c1)C2)C1CCCC1 [Compound 108] | C (EC1.5>25 μM) | < 200
O=C(Cc1ccccc1F)Nc1cccc2c1C(=O)N(c1cccc(C(F)(F)F)c1)C2 [Compound 109] | C (EC1.5>25 μM) | < 200
O=C(Cc1cccc(F)c1)Nc1cccc2c1C(=O)N(c1cccc(C(F)(F)F)c1)C2 [Compound 110] | C (EC1.5>25 μM) | < 200
O=C(Nc1cccc2c1C(=O)N(c1cccc(C(F)(F)F)c1)C2)C1CCOCC1 [Compound 111] | A (EC1.5<10 μM) | < 200
O=C(CC1CCCC1)Nc1cccc2c1C(=O)N(c1cccc(C(F)(F)F)c1)C2 [Compound 112] | C (EC1.5>25 μM) | < 200
O=C(Cc1ccc(F)cc1)Nc1cccc2c1C(=O)N(c1cccc(C(F)(F)F)c1)C2 [Compound 113] | C (EC1.5>25 μM) | < 200
Cc1ccccc1N1Cc2cccc(NC(=O)Cc3cccnc3)c2C1=O [Compound 114] | C (EC1.5>25 μM) | < 200
Cc1cccc(N2Cc3cccc(NC(=O)Cc4cccnc4)c3C2=O)c1 [Compound 115] | C (EC1.5>25 μM) | < 200

SMILES | EC1.5 (concentration of test compound that results in 150% activation of SIRT1) | Emax [%]
COc1cccc(N2Cc3cccc(NC(=O)Cc4cccnc4)c3C2=O)c1 [Compound 116] | C (EC1.5>25 μM) | < 200
Cc1ccc(N2Cc3cccc(NC(=O)Cc4cccnc4)c3C2=O)cc1 [Compound 117] | C (EC1.5>25 μM) | < 200
COc1ccc(N2Cc3cccc(NC(=O)Cc4cccnc4)c3C2=O)cc1 [Compound 118] | C (EC1.5>25 μM) | < 200
COc1ccccc1N1Cc2cccc(NC(=O)Cc3cccnc3)c2C1=O [Compound 119] | C (EC1.5>25 μM) | < 200
O=C(Nc1cccc2c1C(=O)N(c1cccc(C(F)(F)F)c1)C2)c1ccccn1 [Compound 120] | C (EC1.5>25 μM) | < 200
O=C(Nc1cccc2c1C(=O)N(c1cccc(C(F)(F)F)c1)C2)c1cccnc1 [Compound 121] | C (EC1.5>25 μM) | < 200
O=C(Nc1cccc2c1C(=O)N(c1cccc(C(F)(F)F)c1)C2)c1ncccn1 [Compound 122] | A (EC1.5<10 μM) | < 200
O=C(Nc1cccc2c1C(=O)N(c1cccc(C(F)(F)F)c1)C2)c1ccncc1 [Compound 123] | B (EC1-5 10-25 μM) | < 200
O=C(Nc1cccc2c1C(=O)N(c1cccc(C(F)(F)F)c1)C2)c1cscn1 [Compound 124] | C (EC1.5>25 μM) | < 200
O=C(Nc1cccc2c1C(=O)N(c1cccc(C(F)(F)F)c1)C2)c1ccc(CN2CCCC2)cc1 [Compound 125] | A (EC1.5<10 μM) | < 200
O=C(Nc1cccc2c1C(=O)N(c1cccc(C(F)(F)F)c1)C2)c1cncnc1 [Compound 126] | C (EC1.5>25 μM) | < 200
O=C(Nc1cccc2c1C(=O)N(c1cccc(C(F)(F)F)c1)C2)c1ccncn1 [Compound 127] | C (EC1.5>25 μM) | < 200
O=C(Nc1cccc2c1C(=O)N(c1cccc(C(F)(F)F)c1)C2)c1cncs1 [Compound 128] | C (EC1.5>25 μM) | < 200
O=C(Nc1cccc2c1C(=O)N(c1cccc(C(F)(F)F)c1)C2)c1cccc(OCC(O)CO)n1 (centres unmarked) [Compound 129, 6-(2,3-dihydroxypropoxy)-N-(3-oxo-2-(3-(trifluoromethyl)phenyl)isoindolin-4-yl)picolinamide] | C (EC1.5>25 μM) | < 200
O=C(Nc1cccc2c1C(=O)N(c1cccc(C(F)(F)F)c1)C2)c1cccc(CN2CCOCC2)n1 [Compound 130, 6-(morpholinomethyl)-N-(3-oxo-2-(3-(trifluoromethyl)phenyl)isoindolin-4-yl)picolinamide] | A (EC1.5<10 μM) | < 200
